Paper PMC11895359 (Alzheimer's Research & Therapy, 2025)
Values joined by “and” are separate entries in the source; they are usually repeats but may differ in a detail not shown here. Identical values can stand only once. Like-named read-outs stand apart in the source and are kept apart here.

Legend:
[1] = tested on: muscle regeneration; conditions: aged mouse models; cited from earlier work
[2] = target: nicotinamide N-methyl transferase; conditions: competes with nicotinamide; cited from earlier work
[3] = tested on: nicotinamide N-methyl transferase; conditions: cited from earlier work
[4] = LC/MS measurement of CSF nicotinamide and metabolites in NEAT trial participants; conditions: for Kp at 12 months / concentration at 12 months: 1500 mg; for Kp at 12 months: CSF methyl-nicotinamide as percent of plasma methyl-nicotinamide
Procedure: CSF samples were collected at 0 and 12 months.
The injection volume was 10 μL in triplicate.
(§1) We also measured the within-participant association between analytes. […] All bar graphs show mean and standard errors.

[5] = cited from earlier work
[6] = LC/MS measurement of plasma nicotinamide and metabolites in NEAT trial participants; conditions: for concentration at 0 months: Plasma analyte concentration, this work baseline; for Plasma measure: obtained simultaneously with nicotinamide by LC/MS
From the text: (§2) The NEAT trial participants were recruited at UCLA and UC Irvine and were required to meet eligibility criteria that included clinical criteria for mild cognitive impairment or mild dementia due to AD, confirmed by a CSF biomarker (CSF amyloid beta 42 (Aβ42) ≤ 200 pg/mL or a ratio of total tau to Aβ42 ≥ 0.39) [9]. […] Blood was collected from all participants at 0, 6, and 12 months after overnight fasting and plasma rapidly obtained. CSF samples were collected at 0 and 12 months. Plasma and CSF samples were stored at −80 °C until further processing. All samples were included in analysis, with an interval from last dose of drug or placebo ranging from 6 to 432 h.
(§3) Each calibration dilution contained IS at a constant concentration of 1 μM. IS was also added to each patient sample to a final concentration of 0.5 μM. All solutions and QC samples were stored at −20 °C. The lower limit of quantification for each analyte was determined by finding the lowest calibration curve concentration that could both be distinguished with 95% confidence from blank readings and have a signal-to-noise ratio greater than 8 to 1 [10].
(§4) Protein was precipitated by adding 160 μL of −20 °C 99.7% acetonitrile-0.3% formic acid to the IS-sample mix. Samples were centrifuged for 20 min at 4 °C at 17,000 g. 40 μL of the supernatant was then diluted fivefold with 200 μL of 0.3% formic acid in an autosampler well plate (Waters186002643). All plasma and CSF analytes were determined simultaneously for groups of 4–20 participants from the 46 participants without knowledge of their treatment assignment.
(§5) Samples were analyzed on a Waters Acquity UPLC Quattro Premier mass spectrometer in triple quadrupole electrospray positive (ESI +) mode with an Acquity CSH™ Fluoro-Phenyl (2.1 × 50 mm, 1.7 μm) column. For liquid chromatography separation, we modified the method of Chu et al. (2021). We used 0.3% formic acid in water as the mobile A phase, and 99.7% acetonitrile/0.3% formic acid as the mobile B phase. The injection volume was 10 μL in triplicate. The sample elution gradient was programmed as 0 – 0.5 min. in 100% A; 0.5–2.5 min, linear to 95% B; re-equilibrated from 2.5–4.5 min. in 100% A. The flow rate was 0.3 mL/min, and column temperature was 50 °C.
(§6) Microsoft Excel (Version 16.82, Microsoft, Redmond, WA, USA) was used for data management and statistical analysis. Treatment allocation was unblinded after all sample analyte levels were completed by mass spectrometry. We compared the randomized placebo and treatment groups for main analyte effects by two-tailed unpaired Student’s T Tests, with significance at p < 0.05, without adjustment for multiple comparisons in this exploratory analysis. […] We also measured the within-participant association between analytes. […] All bar graphs show mean and standard errors.

[7] = tested on: CSF pTau231; test: Change in CSF pTau231 in NEAT trial participants; type: in vivo, human; design: PTAU231 Month 12, individual participant / PTAU231 change, individual participant: unit not given here
From the text: as §1

[8] = tested on: total tau; test: Change in CSF total tau in NEAT trial participants; type: in vivo, human; conditions: mean ± S.E.
From the text: as §1

[9] = tested on: pTau181; test: Change in CSF pTau181 in NEAT trial participants; type: in vivo, human; conditions: CSF nicotinamide elevated, n = 6, 12 months, mean ± S.E.
From the text: as §1

[10] = tested on: Aβ40; test: Change in CSF Aβ40 in NEAT trial participants; type: in vivo, human; conditions: mean ± S.E.
From the text: as §1

[11] = tested on: Aβ42; test: Change in CSF Aβ42 in NEAT trial participants; type: in vivo, human; conditions: mean ± S.E.
From the text: as §1

[12] = tested on: Aβ42/40; test: Change in CSF Aβ42/40 ratio in NEAT trial participants; type: in vivo, human; conditions: mean ± S.E.
From the text: as §1

[13] = tested on: total tau/ Aβ42; test: Change in CSF total tau/Aβ42 ratio in NEAT trial participants; type: in vivo, human; conditions: mean ± S.E.
From the text: as §1

[14] = tested on: mouse models of Alzheimer’s disease; conditions: mouse models of AD; cited from earlier work
[15] = phase 2a trial, high-dose oral nicotinamide, early AD; cited from earlier work
[16] = design: method as in Galla et al. 16; conditions: ref Galla et al. 16, cited from earlier work
[17] = tested on: Sirt1; conditions: cited from earlier work
[18] = in vivo
From the text: as §2, §3, §4, §5, §6

[19] = obtained simultaneously with nicotinamide by LC/MS
[20] = n = 10, ± S.D., ref Clement et al. 14
[21] = n = 100, ± S.D., ref Seyedsadjadi et al. 15
[22] = CSF nicotinamide elevated, n = 6, 12 months
[23] = n = 659, ± S.D., ref Chu et al. 12
[24] = TX 1500mg, values below limit of quantification set to 0.1 uM, listed as 1-Methynicotinamide

SMILES: C[n+]1cccc2c(N)cccc21 [5-amino-1-methylquinoline]
- Muscle regeneration [1]: improve muscle regeneration

SMILES: COc1ccc(C(N)=O)cn1 [JBSNF-000088, 6-methyloxy-nicotinamide]
- IC50 [2]: 1800 nM
- Reduction of methyl-nicotinamide in mouse plasma [3]: 50%
- Effect on body weight ([3]; mouse): reduced body weight

SMILES: NC(=O)c1ccc[n+]([C@@H]2O[C@H](COP(=O)([O-])OP(=O)(O)OC[C@H]3O[C@@H](n4cnc5c(N)ncnc54)[C@H](O)[C@@H]3O)[C@@H](O)[C@H]2O)c1 [NAD^+, Nicotinamide Adenine Dinucleotide]
- CSF measure [4, 19]: below our limits of detection
- Plasma analyte concentration [5, 20]: 0.008 ± 0.02 µM
- Plasma analyte concentration [5, 21]: 0.023 ± 0.012 µM
- concentration at 0 months ([6]; human, plasma, baseline before treatment, n = 47, ± S.D.): < 1.2 µM
- Plasma measure [6]: below our limits of detection
- Plasma NAD+ (not measurable above) ([6]; this work): < 1.2 nM

SMILES: NC(=O)c1cccnc1 [Nicotinamide]
- PTAU231 Month 12, individual participant ([7]; TX 1500mg): 34.3 and 98.8 and 66 and 31.3 and 12.2 and 14.6 and 15.1 and 68.8 and 21.2 and 10.9 and 29 and 49.5 and 6.6 and 52.5 and 20.1 and 65.3 and 41 and 6.2 and 37
- PTAU231 change, individual participant ([7]; TX 1500mg, Month 12 minus baseline): -12 and 24 and -20 and -24.5 and -2.9 and -10.4 and -17.7 and 29.5 and -11.6 and 3.1 and 7.6 and 1.5 and -0.3 and -15 and -25.2 and -8.5 and -1.5 and -5.3
- PTAU231 % change, individual participant ([7]; TX 1500mg, Month 12 vs baseline): -26% and 32% and -23% and -44% and -19% and -42% and -54% and 75% and -35% and 40% and 36% and 3% and -4% and -22% and -1% and -28% and -17% and -13%
- Percent Change in pTau231 ([7]; all treated participants, 12 months): -9%
- Decrease of pTau231 from baseline ([7]; six treated participants with elevated CSF nicotinamide, 12 months): 34%
- Percent Change in pTau231 ([7]; treated, CSF nicotinamide elevated (six participants), 12 months): -34%
- Increase of pTau231 from baseline ([7]; treated, CSF nicotinamide unelevated group, 12 months): 3%
- Percent Change in pTau231 ([7]; treated, CSF nicotinamide unelevated, 12 months): 3%
- Percent Change in pTau231 ([7]; treated, plasma nicotinamide elevated, 12 months): -4%
- Percent Change in pTau231 ([7]; treated, plasma nicotinamide unelevated, 12 months): -15%
- Change in total tau [8, 22]: -35 ± 84 pg/mL
- Change in total tau ([8]; all treated, n = 19, 12 months): -8.6 ± 54 pg/mL
- Change in pTau181 [9]: 1.1 ± 14 pg/mL
- Change in Aβ40 [10, 22]: -1823 ± 1094 pg/mL
- Change in Aβ40 ([10]; all treated, n = 19, 12 months): -2307 ± 593 pg/mL
- Change in Aβ42 [11, 22]: -75 ± 44 pg/mL
- Change in Aβ42 ([11]; all treated, n = 19, 12 months): -127 ± 38 pg/mL
- Change in Aβ42/40 [12, 22]: −2.1 ± 4%
- Change in Aβ42/40 ([12]; all treated, n = 19, 12 months): −3.7 ± 1.7%
- Change in total tau/ Aβ42 [13, 22]: 35 ± 15%
- Change in total tau/ Aβ42 ([13]; all treated, n = 19, 12 months): 41 ± 7%
- Plasma analyte concentration [5, 20]: 38 ± 11 µM
- Plasma analyte concentration ([5]; n = 54, ± S.D., ref Ibrahim et al. 13): 1.2 ± 0.14 µM
- Plasma analyte concentration [5, 21]: 32 ± 11 µM
- Plasma analyte concentration [5, 23]: 0.9 ± 0.02 µM
- Cognitive function [14]: improved cognitive function
- Safety and tolerability [15]: good safety and tolerability
- Percent of treated participants with elevated plasma nicotinamide ([6]; 12 months, n = 14 of 23): 61%
- concentration at 12 months ([6]; human, plasma, oral, 1500 mg, Mean plasma nicotinamide, drug elevated subgroup, treated, plasma nicotinamide > […], 12 months): 86 µM
- concentration at 12 months ([6]; human, plasma, oral, 1500 mg, Mean plasma nicotinamide, drug unelevated subgroup, treated, plasma nicotinamide ≤ […], 12 months): 0.7 µM
- concentration at 27 h ([6]; human, plasma, oral, 1500 mg, Plasma nicotinamide, one participant, treated, sample 27 h after last dose): 2 µM
- concentration at 6 months ([6]; human, plasma, po, 1500 mg, Mean plasma nicotinamide, nicotinamide-treated participants, 1500 mg PO BID): 73 µM
- concentration at 12 months ([6]; human, plasma, po, 1500 mg, Mean plasma nicotinamide, nicotinamide-treated participants, 1500 mg PO BID, 12 months): 52 µM

SMILES: C[n+]1cccc(C(N)=O)c1 [methyl-nicotinamide, 1-methyl-nicotinamide]
- Percent of treated participants with CSF methyl-nicotinamide seen ([4]; 12 months, n = 9 of 19): 47%
- Ratio of elevated plasma methyl-nicotinamide to CSF methyl-nicotinamide ([4]; 125/3.4, 12 months): 37
- CSF 1-Methynicotinamide, Month 12, individual participant [4, 24]: 0.1 µM and 5.9 µM and 6.5 µM and 4.1 µM and 5.6 µM and 5.7 µM and 1.4 µM and 1.3 µM and 6.4 µM and 7.5 µM and 9.2 µM and 3.6 µM
- CSF methyl-nicotinamide as percent of CSF nicotinamide ([4]; drug elevated subgroup, 3.4/57): 6%
- Kp at 12 months ([4]; human, in vivo, drug elevated subgroup, 3.4 vs 125 μM): 0.03
- Kp at 12 months ([4]; human, in vivo, drug unelevated subgroup, 2.4 vs plasma 37 μM): 0.06
- concentration at 12 months ([4]; human, in vivo, CSF methyl-nicotinamide range in participants with elevated level, nicotinamide treated, 12 months): 3 to 10 µM
- concentration at 12 months ([4]; human, in vivo, Mean CSF methyl-nicotinamide, CSF nicotinamide elevated subgroup, treated, 6 of 19 participants, 12 months): 3.4 µM
- concentration at 12 months ([4]; human, in vivo, Mean CSF methyl-nicotinamide, CSF nicotinamide unelevated subgroup, treated, 12 months): 2.4 µM
- concentration at 12 months ([4]; human, in vivo, Mean CSF methyl-nicotinamide, all nicotinamide-treated participants, 12 months): 3.1 µM
- concentration at 0 months ([4]; human, in vivo, CSF analyte concentration, this work baseline, baseline before treatment, n = 47): ≤ 0.1 µM
- Fold increase of mean CSF methyl-nicotinamide ([4]; treated, 12 months, vs 0.1 μM limit of quantification): at least 31 fold
- Plasma analyte concentration [5, 20]: 0.05 ± 0.01 µM
- Plasma analyte concentration ([5]; n = 10, ± S.D., ref Galla et al. 16): 0.185 ± 0.116 µM
- Plasma analyte concentration [5, 21]: 0.033 ± 0.012 µM
- Plasma analyte concentration [5, 23]: 0.1 ± 0.002 µM
- CSF analyte concentration ([16]; n = 10, ± S.D.): 0.039 ± 0.025 µM
- CSF methyl-nicotinamide ([16]; participants without AD): around 39 nM
- Sirt1 binding and stabilization [17]: binds to and stabilizes Sirt1
- Fold increase of plasma methyl-nicotinamide above baseline in 6 of 7 nicotinamide unelevated participants ([6]; 12 months): at least 127 fold
- Plasma methyl-nicotinamide relative to mean plasma nicotinamide, drug elevated subgroup ([6]; 12 months, 125/86): 1.5 fold
- Fold increase of plasma methyl-nicotinamide above baseline and placebo, drug elevated subgroup ([6]; 12 months, 125/<0.1): ≥ 1250 fold
- Plasma 1-Methynicotinamide, Month 6, individual participant [6, 24]: 72.2 µM and 6.7 µM and 98.7 µM and 8.5 µM and 73.1 µM and 120.1 µM and 30.7 µM and 77.4 µM and 114.1 µM and 160.6 µM and 61.9 µM and 130.4 µM and 151.9 µM and 186.7 µM and 248.2 µM and 186.6 µM and 191.6 µM and 68.1 µM and 186.9 µM
- Plasma 1-Methynicotinamide, Month 12, individual participant [6, 24]: 101.4 µM and 6.8 µM and 0.5 µM and 93.1 µM and 19.8 µM and 119.3 µM and 87.2 µM and 118.8 µM and 0.1 µM and 127.8 µM and 33.8 µM and 71.4 µM and 101.3 µM and 15.3 µM and 73.9 µM and 116.0 µM and 293.9 µM and 219.6 µM and 242.1 µM and 152.9 µM and 1.2 µM and 76.9 µM and 15.0 µM
- Plasma analyte concentration, this work baseline ([6]; baseline before treatment, n = 47, ± S.D.): 0.14 ± 0.03 µM
- concentration at 12 months ([6]; human, in vivo, 1500 mg BID, Mean plasma methyl-nicotinamide in 6 of 7 treated participants without measurable plasma nicotinamide, 12 months): 12.7 µM
- concentration at 12 months ([6]; human, in vivo, 1500 mg, Mean plasma methyl-nicotinamide, plasma nicotinamide elevated subgroup, treated, 12 months): 125 µM
- concentration at 12 months ([6]; human, in vivo, 1500 mg, Mean plasma methyl-nicotinamide, plasma nicotinamide unelevated subgroup, treated, 9 participants, 12 months): 37 µM
- concentration at 12 months ([6]; human, in vivo, 1500 mg, Plasma methyl-nicotinamide range in participants with elevated level, nicotinamide treated, 12 months): 6 to 294 µM
- concentration at 0 months ([6]; human, in vivo, baseline before treatment, n = 47, ± S.D.): 0.14 µM
- concentration at 6 months ([6]; human, in vivo, po, 1500 mg, Mean plasma methyl-nicotinamide, nicotinamide-treated participants, 1500 mg PO BID): 114 µM
- concentration at 12 months ([6]; human, in vivo, po, 1500 mg, Mean plasma methyl-nicotinamide, nicotinamide-treated participants, 1500 mg PO BID, 12 months): 91 µM
- Fold increase of mean plasma methyl-nicotinamide ([6]; treated, 6 and 12 months): > 600 fold

SMILES: NC(=O)c1ccc[n+]([C@@H]2O[C@H](COP(=O)([O-])O)[C@@H](O)[C@H]2O)c1 [nicotinamide mononucleotide]
- CSF measure ([4]; in vivo): below our limits of detection
- Plasma measure [18]: below our limits of detection

SMILES: O=C(O)c1cccnc1 [nicotinic acid]
- CSF measure [4, 19]: below our limits of detection
- Plasma measure [6]: below our limits of detection
